Some test systems named below: CHRF288-11; CMK; CMS; M07e; ML-2; MOLM-13; MV4-11; U937.
Common to all, as to set-up: species or system AML cell lines (8); Primary HTS, single concentration about 10 uM, Cell Titer Glo viability; log10 luminescence, per cent inhibition relative to cycloheximide control
What all share (conditions): 72 h, relative to cycloheximide control, log10 luminescence; inhibitor
A general note: ATP-based viability assays read luminescence as a measure of living cells.

Take `C/C(O)=C(\C#N)C(=O)Nc1ccc(C(F)(F)F)cc1` [SJ000556684-2, TERIFLUNOMIDE]: in the assay with CHRF288-11, the CHRF288-11 %inh came out at 13.26%. In the assay with CMK, this compound came in with a CMK %inh of 2.602%. For the same compound, the CMS %inh with CMS was found to be 4.451%. The M07e %inh in the assay on M07e was 0.1279%. Further, in the assay with ML-2, the ML-2 %inh was 6.049%. Further, the MOLM-13 %inh with MOLM-13 was 8.514%. Moreover, the MV4-11 %inh in the assay on MV4-11 came out at 2.233%. In the assay on U937, the U937 %inh is on record as -0.6256%.

Turning to `COc1ccc(N2Cc3cnc(Nc4ccccc4)nc3N([C@@H]3CC[C@@H](O)C3)C2=O)cc1` [SJ000581169-1], the CHRF288-11 %inh in the assay on CHRF288-11 was found to be 84.91%. Moreover, the CMK %inh with CMK worked out at 31.32%. Also, in the assay on CMS, the CMS %inh was -0.5577%. In addition, in the assay with M07e, the M07e %inh is 3.499%. Moreover, the ML-2 %inh in the assay with ML-2 is recorded as 3.259%. In the assay with MOLM-13, the MOLM-13 %inh turned out to be 15.09%. Also, the MV4-11 %inh with MV4-11 is 9.017%. The U937 %inh with U937 is listed as 3.756%.

Turning to `Cn1cc(C2=C(c3cn(CCCN)c4ccccc34)C(=O)NC2=O)c2ccccc21` [SJ000581029-1, RO 31-7549], the CHRF288-11 %inh in the assay with CHRF288-11 came out at 63.26%. This compound had a CMK %inh with CMK of 7.447%. The CMS %inh with CMS is given as -0.005694%. Also, the M07e %inh in the assay with M07e is reported as -0.4351%. Moreover, the ML-2 %inh in the assay with ML-2 was -0.6707%. Moreover, the MOLM-13 %inh in the assay with MOLM-13 is 8.447%. Further, in the assay on MV4-11, the MV4-11 %inh came to 2.189%. Further, in the assay with U937, the U937 %inh turned out to be 0.8505%.

With `Nc1c(C(=O)c2cccc(CCC3(O)CCCC3)c2)cnn1-c1ccc(F)cc1` [SJ000580994-1], in the assay with CHRF288-11, the CHRF288-11 %inh was 5.85%. Besides, the CMK %inh in the assay on CMK worked out at 2.532%. Moreover, the CMS %inh in the assay with CMS came out at 0.1004%. Besides, the M07e %inh with M07e is given as 2.495%. In addition, the ML-2 %inh with ML-2 is -0.2918%. This compound also came in with an MOLM-13 %inh with MOLM-13 of 0.5318%. Besides, the MV4-11 %inh in the assay with MV4-11 came out at 2.023%. For the same compound, the U937 %inh with U937 was 3.468%.

On to `C/C(=C\c1ccc(C(=O)O)cc1)c1ccc2c(c1)C(C)(C)CCC2(C)C` [SJ000288227-4, TTNPB | TTNPB (AROTINOID ACID)], for which the CHRF288-11 %inh in the assay on CHRF288-11 came out at 0.3991%. This compound gave a CMK %inh in the assay with CMK of 5.715%. Further, the CMS %inh with CMS stood at 11.71%. Moreover, the M07e %inh in the assay on M07e is reported as 3.996%. The ML-2 %inh in the assay with ML-2 is given as 2.308%. This compound also came in with an MOLM-13 %inh with MOLM-13 of 8.388%. Further, in the assay with MV4-11, the MV4-11 %inh is listed as 20.2%. Besides, in the assay on U937, the U937 %inh is recorded as 8.124%.

For `Cc1cc(-c2ccccn2)cc(C)c1/C=C/c1cncc(-c2nn[nH]n2)c1` [SJ000573354-1, U12068/128/1], the CHRF288-11 %inh in the assay with CHRF288-11 is listed as -4.309%. The compound also displayed a CMK %inh in the assay with CMK of 0.3268%. Also, the CMS %inh in the assay with CMS is reported as -3.491%. For the same compound, the M07e %inh in the assay on M07e was -1.071%. In the assay with ML-2, the ML-2 %inh is on record as -0.7476%. The same compound returned an MOLM-13 %inh with MOLM-13 of 1.519%. The MV4-11 %inh in the assay on MV4-11 is reported as -0.7703%. The U937 %inh in the assay with U937 is on record as 1.124%.

For the origin of these results see publication PMC6522510 (Nature Communications, 2019).
